The results in this text go back to ChEMBL document CHEMBL1201862, “PubChem BioAssay data set” (2004).

Molecules are shown by their SMILES.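 Step 1: Grow cells in 96-well plates. Step 2: Expose to compound for 48 hours at 5 concentrations. Step 3: Interpolate endpoints linearly; if unreached, use highest concentration. GI50 marks 50% less growth.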 Calls of active or inactive are those of the source. No stated cut-off is given here; in the data, active = GI50 up to about 1.1 µM and inactive = higher. Where a SMILES comes first, the peptide text is derived from it. [ ]: non-standard residue; d: D form. The star is where a group is joined. ξ: configuration not given here. NMeF = CN[CH](Cc1ccccc1)C(=O)O; ξNMe2Val = CC(C)C(C(=O)*)N(C)C; NMeV = CN[CH](C(=O)O)C(C)C; OtBu = CC(C)(C)O* Bounds are passed on as bounds.

Test systems include DMS-114; A498; OVCAR-4; U-251; OVCAR-8; UO-31; UACC-257; HCT-116; UACC-62; TK-10; OVCAR-5; SK-MEL-28; HCT-15; NCI-H23; SNB-75; HOP-92; SNB-19; NCI-H522; DU-145; MDA-N.
Experiment in all cases: NCI-60 cell line screen, 48 h

Regarding `N#[N+]c1ccccc1Sc1ccc(Cl)cc1`, the GI50 is 48.1 µM (inactive) in the assay with DMS-114; > 100 µM (inactive) in the assay on A498; > 100 µM (inactive) in the assay with OVCAR-4; > 100 µM (inactive) with U-251; > 100 µM (inactive) in the assay with OVCAR-8; > 100 µM (inactive) in the assay on UO-31. Also, the GI50 in the assay on UACC-257 is > 100 µM (inactive); with HCT-116 it was 74.3 µM (inactive); in the assay on UACC-62, > 100 µM (inactive); with TK-10 it was > 100 µM (inactive); in the assay with OVCAR-5, > 100 µM (inactive); with SK-MEL-28, > 100 µM (inactive). Further, the GI50 with HCT-15 was > 100 µM; in the assay with NCI-H23, 47.8 µM (inactive); in the assay with SNB-75, > 100 µM (inactive).

As to `C[C@]12CC(C=O)C(=O)C(O)=C1CC[C@@H]1C2CC[C@@]2(C)C1CC[C@]2(C)O` (some centres not stated), the GI50 was 16.5 µM (inactive) in the assay on DMS-114; 22.1 µM (inactive) with A498; 13.2 µM (inactive) with OVCAR-4; 20.4 µM (inactive) in the assay on U-251; 28.8 µM (inactive) with OVCAR-8; 21.3 µM (inactive) in the assay on UO-31. In addition, the GI50 was 24.2 µM (inactive) in the assay with UACC-257; 16 µM (inactive) in the assay with HOP-92; 20 µM (inactive) in the assay on HCT-116; 13.8 µM (inactive) in the assay with UACC-62; 38.9 µM (inactive) in the assay on TK-10; 16.5 µM (inactive) in the assay with OVCAR-5. Also, the GI50 was 25.8 µM (inactive) with SK-MEL-28; 23 µM in the assay on HCT-15; 21.7 µM (inactive) in the assay with NCI-H23; 25.2 µM (inactive) in the assay with SNB-19; 20.6 µM (inactive) with SNB-75.

With `COC(=O)C12C3C4C1C1C2C3C41I` (configuration not stated), the GI50 in the assay with DMS-114, with A498, in the assay on OVCAR-4, in the assay with U-251, in the assay on OVCAR-8 and in the assay with UO-31 was > 100 µM (inactive) each time. In addition, the GI50 with UACC-257, with HOP-92, in the assay with UACC-62, with TK-10, in the assay on OVCAR-5 and with SK-MEL-28 was > 100 µM (inactive) each time. For the same compound, the GI50 with HCT-15 was > 100 µM; in the assay with NCI-H23, > 100 µM (inactive); in the assay with SNB-19, > 100 µM (inactive).

Turning to `C/C(=C1/CCC/C(=C(/C)c2ccccc2)C1=O)c1ccccc1`, the GI50 is 33.6 µM (inactive) in the assay on NCI-H522; 21.7 µM (inactive) in the assay on DMS-114; 46.3 µM (inactive) in the assay with OVCAR-4; 25.3 µM (inactive) in the assay on U-251; 41.7 µM (inactive) in the assay with OVCAR-8; 44.6 µM (inactive) in the assay on UO-31. Besides, the GI50 in the assay with UACC-257 was 25 µM (inactive); in the assay with HOP-92 it was 38.8 µM (inactive); in the assay with HCT-116, 18.5 µM (inactive); in the assay with UACC-62, 37.2 µM (inactive); with TK-10, > 100 µM (inactive); in the assay with OVCAR-5 it was 27.2 µM (inactive). The GI50 with SK-MEL-28 is 36.3 µM (inactive); in the assay on HCT-15 it was 31.6 µM; in the assay with NCI-H23, 27.5 µM (inactive); in the assay with SNB-19 it was > 100 µM (inactive); in the assay with SNB-75, 63.1 µM (inactive).

Turning to `Cc1ccccc1NC(=O)Cc1csc(N/N=C2\C(=O)Nc3ccccc32)n1`, the GI50 in the assay on NCI-H522 was 17.7 µM (inactive); in the assay with A498, > 100 µM (inactive); in the assay with OVCAR-4, 21.8 µM (inactive); in the assay with U-251 it was 1 µM (active); in the assay on OVCAR-8, 16.6 µM (inactive); with UO-31 it was 40.8 µM (inactive). For the same compound, the GI50 with UACC-257 was 91 µM (inactive); with HOP-92, 30.2 µM (inactive); with HCT-116, 43.7 µM (inactive); in the assay with UACC-62, 49.9 µM (inactive); in the assay with TK-10, 53.2 µM (inactive); in the assay on DU-145, 75 µM (inactive). The GI50 is 41.7 µM (inactive) with OVCAR-5; 1 µM (active) in the assay on SK-MEL-28; 75.2 µM (inactive) in the assay with MDA-N; 37.2 µM in the assay with HCT-15; 38.4 µM (inactive) in the assay on NCI-H23; 71.8 µM (inactive) in the assay with SNB-19. For the same compound, the GI50 with SNB-75 was 55.1 µM (inactive).

In the case of `CC(C)N1CCC2(CC1)NNc1ncccc1-n1cccc12`, the GI50 in the assay with NCI-H522, with DMS-114, in the assay with OVCAR-4, in the assay with U-251, in the assay with OVCAR-8 and in the assay on UO-31 was > 100 µM (inactive) throughout. Also, the GI50 is > 100 µM (inactive) in the assay on UACC-257; > 100 µM (inactive) in the assay with HCT-116; > 100 µM (inactive) in the assay on TK-10; > 100 µM (inactive) with OVCAR-5; > 100 µM (inactive) with SK-MEL-28; > 10 µM in the assay on HCT-15. Further, the GI50 with NCI-H23, in the assay with SNB-19 and in the assay on SNB-75 was > 100 µM (inactive) throughout.

`CC(=O)NC1=C(NCC(C)C)C(=O)c2ccccc2C1=O`: the GI50 in the assay with DMS-114 is 14.7 µM (inactive); in the assay on A498, 83.2 µM (inactive); in the assay on OVCAR-4, 69.2 µM (inactive); with U-251 it was 40.2 µM (inactive); in the assay with OVCAR-8, 22.1 µM (inactive); in the assay on UO-31 it was 18 µM (inactive). The GI50 was 18.8 µM (inactive) in the assay with UACC-257; 14.3 µM (inactive) in the assay with HOP-92; 20.3 µM (inactive) with HCT-116; 18 µM (inactive) with UACC-62; 20.7 µM (inactive) in the assay on TK-10; 65.9 µM (inactive) with OVCAR-5. The GI50 was 17.1 µM (inactive) in the assay with SK-MEL-28; 17.7 µM with HCT-15; 20 µM (inactive) in the assay on NCI-H23; 38.3 µM (inactive) with SNB-19; 16.9 µM (inactive) in the assay with SNB-75.

Turning to `Cc1ccccc1-c1cc(=O)c2cc(C)c(C)c(C(=O)O)c2o1`, the GI50 in the assay on NCI-H522, in the assay on DMS-114, in the assay on OVCAR-4, with U-251, in the assay with OVCAR-8 and with UO-31 was > 100 µM (inactive) in each case. In addition, the GI50 with UACC-257, in the assay on HOP-92, in the assay on HCT-116, in the assay on UACC-62, with TK-10 and in the assay on OVCAR-5 was > 100 µM (inactive) in each case. For the same compound, the GI50 was > 100 µM (inactive) in the assay on SK-MEL-28; > 100 µM with HCT-15; > 100 µM (inactive) with NCI-H23; > 100 µM (inactive) in the assay on SNB-19; > 100 µM (inactive) in the assay with SNB-75.

In the case of `NCCCSCC(=O)O`, the GI50 with NCI-H522, with DMS-114, with OVCAR-4, in the assay on U-251, in the assay on OVCAR-8 and in the assay with UO-31 was > 100 µM (inactive) in each case. In addition, the GI50 with UACC-257, in the assay on HOP-92, with HCT-116, with UACC-62, in the assay on TK-10 and with OVCAR-5 was > 100 µM (inactive) throughout. Further, the GI50 with SK-MEL-28 was > 100 µM (inactive); in the assay on HCT-15 it was > 100 µM; in the assay with NCI-H23 it was > 100 µM (inactive); with SNB-19 it was > 100 µM (inactive); in the assay with SNB-75, > 100 µM (inactive).

As for `COc1ccc(/C(Cl)=C(\c2ccc(OCCN(C)C)cc2)c2ccc(OC(=O)C(C)(C)C)cc2)cc1`, the GI50 was 14.8 µM (inactive) in the assay with NCI-H522; 12.2 µM (inactive) in the assay with DMS-114; 13.9 µM (inactive) in the assay on OVCAR-4; 13.6 µM (inactive) with U-251; 15.8 µM (inactive) with OVCAR-8; 6.95 µM (inactive) in the assay on UO-31. Further, the GI50 in the assay on HOP-92 is 18.1 µM (inactive); with HCT-116, 12.1 µM (inactive); in the assay with UACC-62 it was 14.8 µM (inactive); in the assay on TK-10 it was 18.1 µM (inactive); with OVCAR-5, 15.7 µM (inactive); with SK-MEL-28, 11.1 µM (inactive). The GI50 in the assay with HCT-15 was 10.6 µM; in the assay on NCI-H23, 15.7 µM (inactive); in the assay on SNB-19, 16 µM (inactive); in the assay on SNB-75 it was 10.2 µM (inactive).

With `O=c1cc(-c2ccccc2)oc2cc(OCCCCCCCCCCOc3ccc4c(=O)cc(-c5ccccc5)oc4c3)ccc12`, the GI50 with NCI-H522, with DMS-114, in the assay with OVCAR-4, in the assay with U-251, with OVCAR-8 and with UACC-257 was > 100 µM (inactive) in each case. The GI50 in the assay with HOP-92 is > 100 µM (inactive); with HCT-116, > 100 µM (inactive); with UACC-62, > 100 µM (inactive); in the assay on OVCAR-5 it was > 100 µM (inactive); in the assay with SK-MEL-28, > 100 µM (inactive); in the assay with HCT-15, > 100 µM. Moreover, the GI50 with NCI-H23 was > 100 µM (inactive); with SNB-19 it was > 100 µM (inactive); with SNB-75, 56.1 µM (inactive).

Take `CC(C)C(C(=O)N(C)C(Cc1ccccc1)C(=O)N(C)C(C(=O)N(C)C(C(=O)N1CCCC1C(=O)OC(C)(C)C)C(C)C)C(C)C)N(C)C` (configuration not stated) (ξNMe2Val-[NMeF][NMeV][NMeV]P-OtBu; configuration not given here): the GI50 with NCI-H522 is 17.4 µM (inactive); in the assay with DMS-114, 31.7 µM (inactive); in the assay on U-251 it was > 10 µM (inactive); in the assay on OVCAR-8, 97.3 µM (inactive); in the assay with UO-31, 86.7 µM (inactive); in the assay with UACC-257, 32.8 µM (inactive). The GI50 in the assay on HCT-116 was 33.6 µM (inactive); in the assay on UACC-62, 51.9 µM (inactive); in the assay with TK-10, > 100 µM (inactive); in the assay with HCT-15, 51.6 µM; in the assay with NCI-H23, 94.6 µM (inactive); with SNB-19 it was 58.3 µM (inactive).
